Patent publication US20230183753A1, “Methods of in Vitro Cell Delivery” (Intellia Therapeutics, Inc., priority 2020, published 2023)

Assays:
Assay type in all cases: cell-based, human
[1] = system: B2M, TRAC, TRBC1/2, CIITA; experiment: NGS editing profile of T cells with BC22n or Cas9 mRNA, single or four guides, LNP titration, Example 16A; settings: four guides simultaneously, with trans UGI;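 also: activated T cells exposed to LNPs 72 h after activation, kept at 37 °C, harvested on day 10 post activation, editing measured by NGS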
Description: Cells were expanded in T cell basal media for 72 hours prior to LNP transfection.
LNPs were mixed to fixed total mRNA weight ratios of 6:3:2 for editor mRNA, guide RNA, and UGI mRNA respectively as described in Table 12. […] LNP mixtures were incubated for 5 minutes at 37° C. in T cell basal media substituting 6% cynomolgus monkey serum (Bioreclamation IVT, Cat. CYN220760) for fetal bovine serum.
T cells were incubated at 37° C. with 5% CO2 for the duration of the experiment.
In total, T cells were exposed to 6 different LNPs simultaneously (editor mRNA, UGI mRNA, 4 guides).

B2M, CD3, MHC II = experiment: Flow cytometry of antigen negative T cells (B2M, CD3, MHC II) after BC22n or Cas9 editing, Example 16A
Description: Cells were subsequently washed, processed on a Cytoflex instrument (Beckman Coulter) and analyzed using the FlowJo software package. T cells were gated based on size, shape, viability, and antigen expression.

B2M, TRAC, TRBC, CIITA = experiment: NGS percent editing after LNP delivery of BC22n or Cas9 with single or four guides, Example 16.B.6; settings: 4 guides delivered by LNP
Description: (§1) LNPs were formulated generally as in Example 1 with a single RNA species cargo. […] Seventy-two hours post activation, T cells were washed and suspended in OpTmizer media with cytokines without human serum. […] A control group including unedited T cells (no LNP) was also included. At 16 hours post-delivery, a subset of cells was used to measure cell viability and another subset of cells was processed for imaging of γH2AX foci. The remaining T cells continued to expand in culture. Media was changed 5 days and 8 days after activation and on the eleventh day post activation, cells were harvested for analysis by NGS, flow cytometry and UnIT. NGS was performed as in Example 1.
(§2) On day 8 post-editing, T cells were phenotyped by flow cytometry to determine B2M, CD3 and HLA II− DR, DP, DQ protein expression. Briefly, T cells were incubated in a cocktail of antibodies targeting B2M-APC/Fire™ 750 (BioLegend® Cat. No. 316314), CD3-BV605 (BioLegend® Cat. No. […]) and HLA II− DR, DP, DQ-PE (BioLegend® Cat. No. 361716). Cells were subsequently washed, processed on a Cytoflex flow cytometer (Beckman Coulter) and analyzed using the FlowJo software package. T cells were gated based on size, shape, viability, and MHC II expression. […]

[2] = system: B2M, CD3, HLA II-DR, DP, DQ; experiment: Flow cytometry of surface proteins (B2M, CD3, HLA II-DR, DP, DQ) after LNP delivery, Example 16.B.6; settings: LNP treatment
Description: as §1, §2

[3] = system: interchromosomal translocations; experiment: UnIT structural variant assay (interchromosomal translocations), Example 16.B.7; settings: multiplex editing with 4 guides by LNP
Description: On day 8 post-editing a subset of T cells from the untreated, LNP-Cas9-4 guides and LNP-BC22n-4 guides samples were collected, spun down and resuspended in 100 μL of PBS. gDNA was isolated from the cells using DNeasy Blood & Tissue Kit (Qiagen Cat. 69504). The UnIT structural variant characterization assay was applied to these gDNA samples. High molecular weight genomic DNA is simultaneously fragmented and sequence-tagged (‘tagmented’) with the Tn5 transposase and an adapter with a partial Illumina P5 sequence and a 12 bp unique molecular identifier (UMI). Two sequential PCRs using a primer to P5 and hemi-nested gene specific primers (GSP) imparting the Illumina the P7 sequence to create two Illumina compatible NGS libraries per sample. Sequencing across both directions of the CRISPR/Cas9 targeted cut site with the two libraries allows the inference and quantification of structural variants in DNA repair outcomes after genome editing.

BC22n: mRNA encoding editor: H. sapiens APOBEC3A fused to S. pyogenes-D10A Cas9 nickase by an XTEN linker, without UGI
maximum total editing for each locus compared with Cas9, in words [1]: higher percentages of maximum total editing for each locus
% of cells lacking all three antigens (triple knockout: B2M, CD3, MHC II) (B2M, CD3, MHC II; four guides, with trans UGI, highest total RNA dose of 550 ng): 84.2%
R square, C to T conversions compared to antigen knockout (B2M, CD3, MHC II; samples treated with one guide only): 0.93
percent editing at each locus compared with Cas9, in words (B2M, TRAC, TRBC, CIITA): percent editing is higher at each locus
triple knockout cells compared with Cas9, in words [2]: greater percentage of triple knockout cells
interchromosomal translocations / structural variation (UnIT), in words [3]: reduced to background levels
